This series concerns the target IRF4. The following applies: ASO.

After the bases stand the sugars from the 5' end (letter, count) and the backbone: PS all phosphorothioate, else s phosphorothioate and o phosphodiester by linkage. Methylation of C is not given here. e = 2'-O-(2-methoxyethyl) (MOE); k = constrained ethyl (cEt); d = 2'-deoxy (DNA)

GATGGAACAGTAACTT (sugars k3 d10 k3, PS) had a target mRNA inhibition (SK-MEL-28, 4 µM) of 51%.
“GATGTGATAGCTGAGC (sugars k2 d9 e3 k2, PS)” came in with a target mRNA inhibition (MM.1R, 1 µM) of 52%.
On the same count and under the same terms, the figure for “GATGTGATAGCTGAGC (sugars kkddddddddddkeke, PS)” is 64%; for “GATGTGATAGCTGAGC (sugars kkdddddddddkekek, PS)” it is 31%; for “GATTATATACTGGTTG (sugars kddddddddddkekek, PS)” it is 48%.
In turn, “GATTATATACTGGTTG (sugars kkdddddddddkdkdk, PS)” had a target mRNA inhibition (MM.1R, 1 µM) of 35%.
Still for that read-out and setting: for “GATTATATACTGGTTG (sugars kkdddddddddkekek, PS)” the value was 45%.
In turn, GCAAAGCCACCCTTCC (sugars k3 d10 k3, PS) had a target mRNA inhibition (SK-MEL-28, 4 µM) of 60%.
Same read-out and setting: for GCAACTAGCAGGGCAC (sugars k3 d10 k3, PS) the value was 53%.
For the sequence GCAAGTGTCTTCCACA (sugars k3 d10 k3, PS), under “SK-MEL-28, 4 µM”, the target mRNA inhibition is 77%.
Sequence GCAAGTTTTCTCTGTC (sugars k3 d10 k3, PS) registered a target mRNA inhibition (SK-MEL-28, 4 µM) of 56%.
The same measure, in the same setting: the figure for GCAATTAGCTCTTCTA (sugars k3 d10 k3, PS) is 21%.
GCACACACAAGTGGCC (sugars k3 d10 k3, PS) showed a target mRNA inhibition (SK-MEL-28, 4 µM) of 64%.
As to GCACGCAAGGCTCGGA (sugars k3 d10 k3, PS), where the note is “MM.1R, 1 µM”, the target mRNA inhibition is 7%.
For the setting “SK-MEL-28, 4 µM”, GCACGGACGAACGCGC (sugars k3 d10 k3, PS) showed a target mRNA inhibition of 23%.
For GCACTCTTACTCCGCT (sugars k3 d10 k3, PS), the target mRNA inhibition (MM.1R, 1 µM) came to 2%.
In turn, GCACTGGCATTGAGAC (sugars k3 d10 k3, PS) came in with a target mRNA inhibition (SK-MEL-28, 4 µM) of 73%.
On the same count and under the same terms, for GCAGAAGCTGGTTGGC (sugars k3 d10 k3, PS) the value was 58%; for GCAGCTCCTACATACA (sugars k3 d10 k3, PS), 53%.
In the case of “GCAGTGATGTCAGGTT (sugars e1 k2 d9 k2 e2, PS)”, the target mRNA inhibition is 15% (MM.1R, 0.074 µM); 33% (MM.1R, 0.222 µM); 52% (MM.1R, 0.666 µM); 56% (MM.1R, 1 µM); 75% (MM.1R, 2 µM).
As for “GCAGTGATGTCAGGTT (sugars k2 d9 e3 k2, PS)”, the target mRNA inhibition worked out at 20% (MM.1R, 0.074 µM); 48% (MM.1R, 0.222 µM); 73% (MM.1R, 0.666 µM); 81% (MM.1R, 1 µM); 91% (MM.1R, 2 µM).
“GCAGTGATGTCAGGTT (sugars kddddddddddkekek, PS)”: the target mRNA inhibition (MM.1R, 1 µM) amounted to 36%.
On to “GCAGTGATGTCAGGTT (sugars kdddddddddkekeke, PS)”, for which the target mRNA inhibition (MM.1R, 1 µM) amounted to 33%.
As to “GCAGTGATGTCAGGTT (sugars kkddddddddddkeke, PS)”, the target mRNA inhibition runs as follows: (MM.1R, 0.074 µM) 25%; (MM.1R, 0.222 µM) 45%; (MM.1R, 0.666 µM) 63%; (MM.1R, 1 µM) 67%; (MM.1R, 2 µM) 85%.
Turning to “GCAGTGATGTCAGGTT (sugars kkdddddddddekeke, PS)”, the target mRNA inhibition runs as follows: (MM.1R, 0.074 µM) 22%; (MM.1R, 0.222 µM) 49%; (MM.1R, 0.666 µM) 73%; (MM.1R, 1 µM) 80%; (MM.1R, 2 µM) 92%.
Take GCATAGTGATGAGATA (sugars k3 d10 k3, PS): the target mRNA inhibition (SK-MEL-28, 4 µM) was 59%.
In the case of GCATCTCTAAAGAATG (sugars k3 d10 k3, PS), for the setting “SK-MEL-28, 4 µM”, the target mRNA inhibition was 61%.
Sequence GCATGTTCCTCAAAGC (sugars k3 d10 k3, PS) displayed a target mRNA inhibition (SK-MEL-28, 4 µM) of 76%.
As for “GCATTTTATCATCCGA (sugars k3 d9 k3 e1, PS)”, the target mRNA inhibition amounted to 16% (MM.1R, 0.074 µM); 32% (MM.1R, 0.222 µM); 51% (MM.1R, 0.666 µM); 62% (MM.1R, 1 µM); 77% (MM.1R, 2 µM).
Turning to “GCATTTTATCATCCGA (sugars kdddddddddkekeke, PS)”, the target mRNA inhibition (MM.1R, 1 µM) is 23%.
Consider GCATTTTCCAGAAAAT (sugars k4 d8 k4, PS), for which the target mRNA inhibition (SK-MEL-28, 4 µM) worked out at 37%.
On the same count and under the same terms, the figure for GCCAAAGAGCCCAATT (sugars k3 d10 k3, PS) is 33%; for GCCAAAGTGACTTAAT (sugars k3 d10 k3, PS) it is 70%; for GCCAAGTTGAAGACAC (sugars k3 d10 k3, PS) it is 57%.
Same read-out and setting: the figure for GCCACATTAGCAATTA (sugars k3 d10 k3, PS) is 8%.

Values taken from the OligoGym collection.
